In patent US8802672B2, “Pyrimidinyl-piperazines useful as D3/D2 receptor ligands” (Richter Gedeon Nyrt., priority 2007, dated 2014):

Experiments:
[1] = target: rat recombinant D3 receptors (Rattus norvegicus (Rat), UniProt P19020); test: D3 receptor binding; conditions: for Ki: [3H]spiperone, rat recombinant D3 in Sf9 cells
[2] = target: D2 receptor (rat brain striatal membrane preparation) (Rattus norvegicus (Rat), UniProt P61169); test: D2 receptor binding; conditions: [3H]spiperone, rat striatal membranes
Sequence of D2 receptor (rat brain striatal membrane preparation) (P61169 whole entry): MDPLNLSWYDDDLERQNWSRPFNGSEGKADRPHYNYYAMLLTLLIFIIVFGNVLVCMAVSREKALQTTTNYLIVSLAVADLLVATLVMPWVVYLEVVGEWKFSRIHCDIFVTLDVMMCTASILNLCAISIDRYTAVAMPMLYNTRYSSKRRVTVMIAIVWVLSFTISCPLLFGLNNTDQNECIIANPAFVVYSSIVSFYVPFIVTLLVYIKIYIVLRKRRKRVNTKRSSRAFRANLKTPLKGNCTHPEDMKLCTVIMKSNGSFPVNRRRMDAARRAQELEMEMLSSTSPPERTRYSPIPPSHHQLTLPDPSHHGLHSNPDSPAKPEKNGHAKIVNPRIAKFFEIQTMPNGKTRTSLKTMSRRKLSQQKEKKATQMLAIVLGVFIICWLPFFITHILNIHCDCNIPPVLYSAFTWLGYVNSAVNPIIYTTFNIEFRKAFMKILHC
Experimental: Non-specific binding was determined in the presence of 1 μM (+) butaclamol.

[3] = system: male Wistar rats; test: Catalepsy test; format: in vivo; conditions: rat; for Catalepsy (MED): oral, minimum effective cataleptic dose; for TI, therapeutic index - catalepsy MED divided by amphetamine hypermotility ED50: in vivo
Experimental: Thirty minutes after the oral treatment with the test compounds male Wistar rats weighing 200-220 g (n=10/group) were placed in extra-ordinary position: placing both forepaws of the rat on a 10 cm high podium. […] The frequency of cataleptic animals was determined at one, two, three, four and five hours after the treatment. Minimum effective (cataleptic) dose was defined as the dose causing catalepsy at least at two readings (i.e. either at two time points in the same animal or in two different animals at any of the time points).

[4] = target: adrenergic alpha-1 receptors (rat cortical membrane preparation); test: Alpha-1 receptor binding; conditions: [3H]-prazosine, rat cortical membranes; read-out: α-1 Ki
Experimental: The non-specific binding was determined in the presence of 10 μM phentolamine.

[5] = system: male Wistar rats; test: Amphetamine-induced hypermotility; format: in vivo; conditions: oral, rat, d-amphetamine 0.5 mg/kg sc.; for ED50: read-out: Inhibition of amphetamine-induced hypermotility (ED50)
Experimental: 4. Amphetamine-Induced Hypermotility
One hour after the oral administration of doses of the test compound or vehicle, male Wistar rats were subcutaneously treated with d-amphetamine (0.5 mg/kg, sc.) and were individually placed in activity cages for one hour. Locomotor activity was measured in a four-channel activity monitor equipped with infrared photobeams Horizontal movement was determined as the number of beam interruptions. Mean±SE of horizontal activity data of each group was calculated. Percent inhibition of amphetamine-induced increase in locomotion was calculated for each dose of the tested compound. The ED-50 value was determined by linear regression fitted to the dose-response plot.

[6] = system: male Wistar rats; test: Scopolamine-induced learning disturbance in the water-labyrinth; format: in vivo, rat
Experimental: 6. Scopolamine-Induced Learning Disturbance in the Water-Labyrinth
The learning process of rats was assessed in a 3-choice point water-labyrinth system. The number of directional turning errors was recorded in three daily trials for three experimental days. Male Wistar rats weighing 180-200 g (n=10 per groups) were treated orally with vehicle or the test compounds 1 hour before each daily session. Scopolamine (3 mg/kg ip.) as amnestic agent was injected 30 minutes prior to the first daily trial. Mean±SE of errors committed in all the trials was calculated in each group. Percent inhibition of scopolamine-induced increase in the number of errors was calculated for each dose of the tested compound.

Sequence of rat recombinant D3 receptors (P19020 whole entry): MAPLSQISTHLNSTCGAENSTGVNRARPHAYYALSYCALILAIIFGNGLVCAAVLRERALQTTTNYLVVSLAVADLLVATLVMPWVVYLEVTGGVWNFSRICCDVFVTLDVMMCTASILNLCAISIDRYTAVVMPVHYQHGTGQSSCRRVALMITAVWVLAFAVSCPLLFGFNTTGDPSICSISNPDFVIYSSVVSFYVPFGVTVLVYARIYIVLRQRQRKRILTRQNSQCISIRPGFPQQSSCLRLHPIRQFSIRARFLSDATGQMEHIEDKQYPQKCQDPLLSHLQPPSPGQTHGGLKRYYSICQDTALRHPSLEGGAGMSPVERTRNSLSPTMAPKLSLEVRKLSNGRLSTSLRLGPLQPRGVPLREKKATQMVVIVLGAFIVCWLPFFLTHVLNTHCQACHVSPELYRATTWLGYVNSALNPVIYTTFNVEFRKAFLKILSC

Structure (SMILES): CNc1nc(Cl)c(Cl)c(N2CCN(CC[C@H]3CC[C@H](NC(C)=O)CC3)CC2)n1 [Compound 1, Trans-N-(4-{2-[4-(5,6-dichloro-2-methylamino-pyrimidin-4-yl)-piperazin-1-yl]-ethyl}-cyclohexyl)-acetamide]
- Sel. = D2/D3 selectivity, Ki for D2 receptor divided by Ki for D3 receptor [1]: 22
- Ki [1]: < 1 nM
- Ki [2]: 15 to 50 nM
- Catalepsy (MED) [3]: 100 mg/kg
- TI, therapeutic index - catalepsy MED divided by amphetamine hypermotility ED50 [3]: 714

Structure (SMILES): CNc1nc(Cl)c(Cl)c(N2CCN(CC[C@H]3CC[C@H](NC(N)=O)CC3)CC2)n1 [Compound 2, Trans-(4-{2-[4-(5,6-dichloro-2-methylamino-pyrimidin-4-yl)-piperazin-1-yl]-ethyl}-cyclohexyl)-urea]
- Sel. = D2/D3 selectivity, Ki for D2 receptor divided by Ki for D3 receptor [1]: 27
- Ki [4]: > 1000 nM

Structure (SMILES): CCNc1nc(Cl)c(Cl)c(N2CCN(CC[C@H]3CC[C@H](NC(C)=O)CC3)CC2)n1 [Compound 6, trans-N-(4-{2-[4-(5,6-dichloro-2-ethylamino-pyrimidin-4-yl)-piperazin-1-yl]-ethyl}-cyclohexyl)-acetamide]
- Sel. = D2/D3 selectivity, Ki for D2 receptor divided by Ki for D3 receptor [1]: 23
- Ki [4]: > 1000 nM

Structure (SMILES): CNc1nc(Cl)c(Cl)c(N2CCN(CC[C@H]3CC[C@H](NC(=O)N4CCOCC4)CC3)CC2)n1 [Compound 7, trans-morpholine-4-carboxylic acid (4-{2-[4-(5,6-dichloro-2-methylamino-pyrimidin-4-yl)-piperazin-1-yl]-ethyl}-cyclohexyl)-amide]
- Ki [4]: > 1000 nM

Structure (SMILES): CNc1nc(Cl)c(Cl)c(N2CCN(CC[C@H]3CC[C@H](NC(=O)N(C)C)CC3)CC2)n1 [Compound 8]
- Sel. = D2/D3 selectivity, Ki for D2 receptor divided by Ki for D3 receptor [1]: 7
- Ki [1]: 1 to 3 nM
- Ki [2]: 15 to 50 nM
- Ki [4]: > 1000 nM
- Inhibition of amphetamine-induced hypermotility (ED50) [5]: 0.14 mg/kg
- Catalepsy (MED) [3]: >25 mg/kg
- TI, therapeutic index - catalepsy MED divided by amphetamine hypermotility ED50 [3]: >179
- % inhibition of scopolamine-induced learning disturbance ([6]; dose 0.025 mg/kg oral): 38%
- % inhibition of scopolamine-induced learning disturbance ([6]; dose 0.05 mg/kg oral): 65%
- % inhibition of scopolamine-induced learning disturbance ([6]; dose 1 mg/kg oral): 31%

Structure (SMILES): CCNC(=O)N[C@H]1CC[C@H](CCN2CCN(c3nc(NC)nc(Cl)c3Cl)CC2)CC1 [Compound 10, Trans-1-(4-{2-[4-(5,6-dichloro-2-methylamino-pyrimidin-4-yl)-piperazin-1-yl]-ethyl}-cyclohexyl)-3-ethyl-urea]
- Sel. = D2/D3 selectivity, Ki for D2 receptor divided by Ki for D3 receptor [1]: 17

Structure (SMILES): CCC(=O)N[C@H]1CC[C@H](CCN2CCN(c3nc(NC)nc(Cl)c3Cl)CC2)CC1 [Compound 11]
- Sel. = D2/D3 selectivity, Ki for D2 receptor divided by Ki for D3 receptor [1]: 43
- Ki [1]: < 1 nM
- Ki [2]: 5 to 15 nM
- Ki [4]: > 1000 nM

Structure (SMILES): Cc1cc2c(s1)Nc1ccccc1N=C2N1CCN(C)CC1 [Olanzapine, reference compound]
- ED50 [5]: 1.8 mg/kg
- % inhibition of scopolamine-induced learning disturbance ([6]; dose 1 mg/kg oral): −12%
- % inhibition of scopolamine-induced learning disturbance ([6]; dose 3 mg/kg oral): −49%

Structure (SMILES): Cc1nc2n(c(=O)c1CCN1CCC(c3noc4cc(F)ccc34)CC1)CCCC2 [Risperidone, reference compound]
- ED50 [5]: 0.15 mg/kg
- % inhibition of scopolamine-induced learning disturbance ([6]; dose 0.5 mg/kg oral): −15%
